Assay: xn = mol fraction of the nth substance listed

CCCCCCCCN + COCCO
308.15 K, 101 kPa
Conditions	viscosity [mPa·s]
x2 = 0.1894	1.275
x2 = 0.3445	1.474
x2 = 0.4739	1.614
x2 = 0.5835	1.667
x2 = 0.6777	1.67
x2 = 0.7592	1.609
x2 = 0.8307	1.556
x2 = 0.8937	1.482
x2 = 0.9498	1.379

CCCCCCCCCCCCO + CCCCCCCO
viscosity [mPa·s], 101.8 kPa
Conditions	x2 = 0.1535	x2 = 0.4063	x2 = 0.6158	x2 = 0.7897	x2 = 0.937
298.15 K	14.93	11.89	9.619	7.876	6.209
308.15 K	10.25	8.286	6.789	5.642	4.516
318.15 K	7.217	5.917	4.913	4.132	3.362

NCCO.O=CO + CCO
viscosity [mPa·s], 101 kPa
Conditions	x2 = 0.6996	x2 = 0.7776	x2 = 0.8461	x2 = 0.9031	x2 = 0.9294	x2 = 0.9544	x2 = 0.9779
293.15 K	12.34	7.77	5.01	3.318	2.76	2.28	1.86
298.15 K	10.54	6.762	4.44	3	2.502	2.064	1.71
303.15 K	9.078	5.97	3.984	2.73	2.268	1.902	1.584

CC(C)CCCC(C)CCCC(C)CCCCC(C)CCCC(C)CCCC(C)C (stereo not given) + CCCCCCCCCCCCCCCC
298.15 K, 101.33 kPa
Conditions	viscosity [mPa·s]
x2 = 0.045	26.05
x2 = 0.099	23.59
x2 = 0.1473	21.54
x2 = 0.2008	19.45
x2 = 0.2977	16.16
x2 = 0.4495	11.84
x2 = 0.6011	8.569
x2 = 0.8001	5.307

[Cl-].[Cl-].[Cl-].[Cl-].[Ge+4] + C1COCCO1
viscosity [mPa·s], 101 kPa
Conditions	x2 = 0.1519	x2 = 0.3148	x2 = 0.5071	x2 = 0.6631	x2 = 0.8814	x2 = 0.9218
298.15 K	0.626	0.67	0.745	0.837	0.978	1.087
313.15 K	0.539	0.57	0.627	0.687	0.784	0.856

CC(C)CCCC(C)CCCC(C)CCCCC(C)CCCC(C)CCCC(C)C (stereo not given) + CC(C)CO
101 kPa
Conditions	viscosity [mPa·s]
298.15 K, x2 = 0.1032	22.85
308.15 K, x2 = 0.1672	13.45

CCCCCCCCCCCCO + CCCCCCCCO
viscosity [mPa·s], 101.8 kPa
Conditions	x2 = 0.1377	x2 = 0.3798	x2 = 0.589	x2 = 0.7701	x2 = 0.9281
298.15 K	15.08	12.91	11.11	9.509	8.204
308.15 K	10.21	8.958	7.745	6.704	5.873
318.15 K	7.201	6.357	5.553	4.856	4.284

Cc1ccc(C)cc1 + Cc1ccccc1
Conditions	viscosity [mPa·s]
293.15 K, 101.33 kPa, x2 = 0.1516	0.636
293.15 K, 101.33 kPa, x2 = 0.3137	0.624
293.15 K, 101.33 kPa, x2 = 0.6003	0.6
293.15 K, 101.33 kPa, x2 = 0.8519	0.588
298.15 K, 101 kPa, x1 = 0.1	0.5595
298.15 K, 101 kPa, x1 = 0.2	0.565
298.15 K, 101 kPa, x1 = 0.3	0.5703
298.15 K, 101 kPa, x1 = 0.4	0.5756
298.15 K, 101 kPa, x1 = 0.5	0.5807
298.15 K, 101 kPa, x1 = 0.6	0.5857
298.15 K, 101 kPa, x1 = 0.7	0.5907
298.15 K, 101 kPa, x1 = 0.8	0.5955
298.15 K, 101 kPa, x1 = 0.9	0.6001
303.15 K, 101.33 kPa, x2 = 0.1516	0.56
303.15 K, 101.33 kPa, x2 = 0.3137	0.547
303.15 K, 101.33 kPa, x2 = 0.6003	0.532
303.15 K, 101.33 kPa, x2 = 0.8519	0.526
313.15 K, 101.33 kPa, x2 = 0.1516	0.509
313.15 K, 101.33 kPa, x2 = 0.3137	0.5
313.15 K, 101.33 kPa, x2 = 0.6003	0.491
313.15 K, 101.33 kPa, x2 = 0.8519	0.47
323.15 K, 101.33 kPa, x2 = 0.1516	0.459
323.15 K, 101.33 kPa, x2 = 0.3137	0.45
323.15 K, 101.33 kPa, x2 = 0.6003	0.437
323.15 K, 101.33 kPa, x2 = 0.8519	0.423

[Cl-].[Cl-].[Cl-].[Cl-].[Ge+4] + COc1ccccc1
viscosity [mPa·s], 101 kPa
Conditions	x2 = 0.2185	x2 = 0.3554	x2 = 0.4923	x2 = 0.6922	x2 = 0.8481
293.15 K	0.65	0.688	0.734	0.836	0.963
303.15 K	0.591	0.621	0.654	0.732	0.836
313.15 K	0.535	0.555	0.598	0.654	0.731

c1ccc(Nc2ccccc2)cc1 + CC(=O)O
323.15 K, 101.33 kPa
Conditions	viscosity [mPa·s]
x1 = 0.1031	1.083
x1 = 0.2023	1.242
x1 = 0.4039	2.267
x1 = 0.5079	2.799
x1 = 0.6113	3.35
x1 = 0.6724	3.714
x1 = 0.7895	4.486

c1ccc(Nc2ccccc2)cc1 + CCCCCC(=O)O
323.15 K, 101.33 kPa
Conditions	viscosity [mPa·s]
x1 = 0.2111	2.271
x1 = 0.3983	2.789
x1 = 0.5972	3.497
x1 = 0.7957	4.496

O=P([O-])([O-])[O-].[Na+].[Na+].[Na+] + O
viscosity [mPa·s], 101 kPa
Conditions	x1 = 0.0018	x1 = 0.0054	x1 = 0.0089	x1 = 0.012	x1 = 0.016
298.15 K	0.9742	1.167	1.458	1.859	2.317
303.15 K	0.8777	1.054	1.31	1.67	2.131
308.15 K	0.7769	0.9282	1.146	1.444	1.868

C=C(C)C(=O)OCCCCCCC + c1ccccc1
viscosity [mPa·s], 101 kPa
Conditions	x1 = 0.002	x1 = 0.004	x1 = 0.01	x1 = 0.02
303 K	0.5525	0.5621	0.5849	0.5828
313 K	0.4874	0.4915	0.5123	0.5115
323 K	0.4321	0.4362	0.4518	0.4535

NCCO.O=CO + O
viscosity [mPa·s], 101 kPa
Conditions	x1 = 0.0088	x1 = 0.0186	x2 = 0.8561	x2 = 0.8993	x2 = 0.9327	x2 = 0.9591	x2 = 0.9712
293.15 K	1.23	1.29	3.936	2.814	2.172	1.842	1.482
298.15 K	1.08	1.17	3.51	2.52	1.914	1.614	1.35
303.15 K	0.99	1.05	3.12	2.28	1.716	1.386	1.23

O=C(O)c1ccccc1C(=O)O + CO
viscosity [mPa·s]
Conditions	308.15 K	313.15 K	318.15 K	323.15 K
101 kPa, x1 = 0.0453	0.916	–	–	0.7018
101 kPa, x1 = 0.0538	1.001	–	–	0.79
101 kPa, x1 = 0.0598	1.085	–	–	0.8526
101 kPa, x1 = 0.0666	1.226	–	–	0.906
101.33 kPa, x1 = 0.0453	0.916	0.8445	0.777	0.718
101.33 kPa, x1 = 0.06	1.085	1.009	0.9326	0.8526

O=C(O)c1ccccc1C(=O)O + CCCCO
viscosity [mPa·s]
Conditions	308.15 K	313.15 K	318.15 K	323.15 K
101 kPa, x1 = 0.021	–	–	1.806	1.604
101 kPa, x1 = 0.032	–	–	1.928	1.712
101 kPa, x1 = 0.039	–	–	1.985	1.78
101.33 kPa, x1 = 0.021	2.302	2.033	1.806	1.604
101.33 kPa, x1 = 0.032	–	2.18	1.928	1.712
